In patent publication US20120065179A1, “PRODRUG COMPRISING BETA-KETO CARBOXYLIC ACID, BETA-KETO CARBOXYLIC ACID SALT OR BETA-KETO CARBOXYLIC ACID ESTER FOR DRUG DELIVERY” (YKI, Ytemiska Institutet AB, priority 2009, published 2012):
Where two headings read alike, the source gives them in different places. Marks after values point to notes of the source that are not given here.

Legend:
[1] = Storage stability of benzoylacetate salts and their corresponding acid (HPLC or gravimetric); type: physicochemical; conditions: for % relative to initial sample amount (by HPLC): stored in freezer (ca −18° C.)
Description: (§1) A 0.2 M solution of ethyl benzoyl acetate (90%, Sigma Aldrich) in 0.5 M NaOH (aq) was prepared at room temperature and stirred for typically 5-24 hours, still at room temperature. After this time a major part of the ethyl benzoyl acetate had been transformed into dissolved sodium benzoyl acetate, as evidenced by monitoring the reaction by analysis of samples by reversed phase HPLC. Some acetophenone and remaining ethyl benzoyl acetate were typically present in the samples, but in minor amounts. The method employed a C8 column with an inner diameter of 150×4.6 mm and 5 micron particles. The mobile phase consisted of 400 ml deionized water+600 ml acetonitrile+0.196 g H3PO4 (85%)+2.760 g NaH2PO4*H2O. The flow rate was set to 1.0 mL/min and UV detection at 254 nm was employed for analysis of the compounds ethylbenzoylacetate (precursor), benzoylacetate (model prodrug) and acetophenone (model drug).
The storage stability of the sodium and calcium salts of benzoylacetate, and of benzoylacetic acid, in solid form, and in aqueous solutions, was investigated by storage of samples under various conditions (see Table 3a above) with regular HPLC- or gravimetric measurements of the samples from time to time. Samples denoted “neutralized” were prepared from a solution prepared as described in Example 1, which was neutralized with diluted HCl after performing the steps in Example 1.
From the data it can be concluded that the best storage stability at room temperature is obtained by storage in the form of the calcium salt.

[2] = pH 7
[3] = Sustained release of acetophenone in vitro in model blood electrolyte solution at 37° C.; type: physicochemical; conditions: for Concentration of sodium benzoyl acetate model prodrug in sample: model blood electrolyte solution pH 7.4
Description: as §1
Ethyl benzoyl acetate was saponified according to the description in Example 1, and after 7 hours a solution containing about 0.2 M of the sodium salt of benzoyl acetate was obtained.

- % relative to sample amount remaining after 2 days (by HPLC) ([1]; Alkaline solution of Na-benzoyl acetate from Example 1, stored at room T, storage time 2 days): 100.0%
- % relative to sample amount remaining after 2 days (by HPLC) ([1]; Alkaline solution of Na-benzoyl acetate from Example 1, stored at room T, storage time 8 days): 66.2%
- % relative to sample amount remaining after 2 days (by HPLC) ([1]; Alkaline solution of Na-benzoyl acetate from Example 1, stored at room T, storage time 23 days): 10.0%
- % relative to sample amount remaining after 2 days (by HPLC) ([1]; Neutralized solution of Na-benzoyl acetate from Example 1 (pH 7.1), at room T, storage time 2 days): 100.0%
- % relative to sample amount remaining after 2 days (by HPLC) ([1]; Neutralized solution of Na-benzoyl acetate from Example 1 (pH 7.1), at room T, storage time 8 days): 52.0%
- % relative to sample amount remaining after 2 days (by HPLC) ([1]; Neutralized solution of Na-benzoyl acetate from Example 1 (pH 7.1), at room T, storage time 23 days): 8.9%
- % relative to sample amount remaining after 2 days (by HPLC) ([1]; Solid Na-salt, neutralized, 30-50% RH at room T, storage time 2 days): 100.0%
- % relative to sample amount remaining after 2 days (by HPLC) ([1]; Solid Na-salt, neutralized, 30-50% RH at room T, storage time 8 days): 84.8%
- % relative to sample amount remaining after 2 days (by HPLC) ([1]; Solid Na-salt, neutralized, 30-50% RH at room T, storage time 23 days): 33.4%
- % of absolute amount expected to be present in sample (by HPLC) ([1]; Solid Na-salt, neutralized, 30-50% RH at room T, storage time 185 days): 1.3*** %
- % of absolute amount expected to be present in sample (by HPLC) ([1]; Solid Na-salt, neutralized, stored at 6° C., storage time 0 days): 103.1%
- % of absolute amount expected to be present in sample (by HPLC) ([1]; Solid Na-salt, neutralized, stored at 6° C., storage time 2 days): 112.6%
- % of absolute amount expected to be present in sample (by HPLC) ([1]; Solid Na-salt, neutralized, stored at 6° C., storage time 5 days): 109.2%
- % of absolute amount expected to be present in sample (by HPLC) ([1]; Solid Na-salt, neutralized, stored at 6° C., storage time 8 days): 102.0%
- % of absolute amount expected to be present in sample (by HPLC) ([1]; Solid Na-salt, neutralized, stored at 6° C., storage time 12 days): 100.7%
- % of absolute amount expected to be present in sample (by HPLC) ([1]; Solid Na-salt, neutralized, stored at 6° C., storage time 16 days): 98.5%
- % of absolute amount expected to be present in sample (by HPLC) ([1]; Solid Na-salt, neutralized, stored at 6° C., storage time 21 days): 81.9%
- % of absolute amount expected to be present in sample (by HPLC) ([1]; Solid Na-salt, neutralized, stored at 6° C., storage time 37 days): 74.6%
- % of absolute amount expected to be present in sample (by HPLC) ([1]; Solid Na-salt, neutralized, stored at 6° C., storage time 49 days): 72.3%
- % of absolute amount expected to be present in sample (by HPLC) ([1]; Solid Na-salt, neutralized, stored at 60° C., storage time 0.02 days): 77.2%
- % of absolute amount expected to be present in sample (by HPLC) ([1]; Solid Na-salt, neutralized, stored at 60° C., storage time 0.8 days): 10.7%
- % of absolute amount expected to be present in sample (by HPLC) ([1]; Solid Na-salt, neutralized, stored at 60° C., storage time 9.1 days): 3.6%
- % relative to initial sample amount (by HPLC) ([1]; Solid Na-salt, neutralized, storage time 0 days): 100%
- % relative to initial sample amount (by HPLC) ([1]; Solid Na-salt, neutralized, storage time 2 days): 100%
- % relative to initial sample amount (by HPLC) ([1]; Solid Na-salt, neutralized, storage time 5 days): 124%
- % relative to initial sample amount (by HPLC) ([1]; Solid Na-salt, neutralized, storage time 8 days): 106%
- % relative to initial sample amount (by HPLC) ([1]; Solid Na-salt, neutralized, storage time 12 days): 112%
- % relative to initial sample amount (by HPLC) ([1]; Solid Na-salt, neutralized, storage time 16 days): 106%
- % relative to initial sample amount (by HPLC) ([1]; Solid Na-salt, neutralized, storage time 21 days): 101%
- % relative to initial sample amount (by HPLC) ([1]; Solid Na-salt, neutralized, storage time 37 days): 105%
- % relative to initial sample amount (by HPLC) ([1]; Solid Na-salt, neutralized, storage time 49 days): 117%
- % relative to sample amount remaining after 2 days (by HPLC) ([1]; Solid Na-salt, non neutralized, 30-50% RH at room T, storage time 2 days): 100.0%
- % relative to sample amount remaining after 2 days (by HPLC) ([1]; Solid Na-salt, non neutralized, 30-50% RH at room T, storage time 8 days): 46.8%
- % relative to sample amount remaining after 2 days (by HPLC) ([1]; Solid Na-salt, non neutralized, 30-50% RH at room T, storage time 23 days): 12.4%
- Solubility [2]: ≧200 mM
- half-life at 2 mM ([3]; model blood electrolyte solution pH 7.4, 37° C., read-out: estimated half-life (converted)): ~20 h
- Concentration of sodium benzoyl acetate model prodrug in sample ([3]; Time @ 37° C. 0.42): 2660 µM
- Concentration of sodium benzoyl acetate model prodrug in sample ([3]; Time @ 37° C. 2.25): 2300 µM
- Concentration of sodium benzoyl acetate model prodrug in sample ([3]; Time @ 37° C. 3.17): 2440 µM
- Concentration of sodium benzoyl acetate model prodrug in sample ([3]; Time @ 37° C. 4.17): 2400 µM
- Concentration of sodium benzoyl acetate model prodrug in sample ([3]; Time @ 37° C. 6.17): 1710 µM
- Concentration of sodium benzoyl acetate model prodrug in sample ([3]; Time @ 37° C. 8.25): 1960 µM
- Concentration of sodium benzoyl acetate model prodrug in sample ([3]; Time @ 37° C. 10.17): 1690 µM
- Concentration of sodium benzoyl acetate model prodrug in sample ([3]; Time @ 37° C. 12.17): 1590 µM
- Concentration of sodium benzoyl acetate model prodrug in sample ([3]; Time @ 37° C. 13.92): 1520 µM
- Concentration of sodium benzoyl acetate model prodrug in sample ([3]; Time @ 37° C. 17.92): 1430 µM
- Concentration of sodium benzoyl acetate model prodrug in sample ([3]; Time @ 37° C. 21.17): 1310 µM
- Concentration of sodium benzoyl acetate model prodrug in sample ([3]; Time @ 37° C. 24.92): 1020 µM
- Concentration of sodium benzoyl acetate model prodrug in sample ([3]; Time @ 37° C. 31.33): 940 µM
- Concentration of sodium benzoyl acetate model prodrug in sample ([3]; Time @ 37° C. 48.75): 530 µM
- Concentration of sodium benzoyl acetate model prodrug in sample ([3]; Time @ 37° C. 76.33): 200 µM
- Solubility (physchem; pH 7, water, Solubility): > 200 mM
- Solubility (physchem; water, Solubility (mM, as acetophenone equivalents)): ≥ 200 mM
SMILES: O=C([O-])CC(=O)c1ccccc1.[Na+] [sodium benzoylacetate]
